Consider 66 compounds from ChEMBL document CHEMBL3301448, “MMV Malaria Box screening against Toxoplasma gondii and Entamoeba histolytica”.

The test system of one assay is Entamoeba histolytica. The assay can be described thus: MMV: Primary screening was performed with each compound at a 30 uM final concentration and in triplicate in sealed 96-well polystyrene microtiter plates. Parasite inocula (100 ul) comprising 20000 parasites/ml were added to each well and grown at 37 degrees C in a humidified atmosphere of 5% CO2 for 72 h. Positive controls consisted of metronidazole at 1 mg/ml. The growth of E. histolytica trophozoites in each well was determined microscopically by measuring the diameters of the confluent cells in drug-containing wells relative to those in the nega- tive-control wells. Format: functional, organism-based.

The subject of another assay is Toxoplasma gondii. The assay can be described thus: MMV: A total of 100ul of inoculum was added to each well (parasite/cell ratio, ~10:1; final volume, 200 ul). Six hours after inoculation, nonadherent parasites were removed, and 100 ul of complete DMEM (1% penicillin-streptomycin, 3% FBS) supplemented with inhibitors at different concentrations (2-fold serial dilutions starting from 30 uM) was added to all except the negative-control wells. Positive controls, consisting of pyrimethamine (PYR) and sulfadiazine (SDZ) (20-mg/ml stocks in DMSO), were tested at a 2mg/ml final concentration. Each test was performed in triplicate. The class given is functional, organism-based. Particulars: 6 h.

pIC50: −log10 of the molar value.

Broadly, the pIC50 is −log10 of the IC50, conventionally taken in molar units. As to `OC(CNCC1CCCO1)Cn1c2ccc(Cl)cc2c2cc(Cl)ccc21` (configuration not stated), the negative-log IC50 (pIC50) in the assay with Entamoeba histolytica and with Toxoplasma gondii was less than 4.52 each time.

Regarding `O=C(Nc1cccc(C2=NCCN2)c1)Nc1cccc(C2=NCCN2)c1` [IMIDOCARB], the pIC50 with Entamoeba histolytica and in the assay with Toxoplasma gondii was less than 4.52 throughout.

For `OC(CNC1CCCCC1)Cn1c2ccccc2c2ccccc21` (configuration not stated), the pIC50 was less than 4.52 in the assay with Entamoeba histolytica and 5.06 in the assay on Toxoplasma gondii.

Consider `CCOc1ccc2nc(C)cc(Nc3ccc(Br)cc3)c2c1`, for which the pIC50 with Entamoeba histolytica and with Toxoplasma gondii was less than 4.52 throughout.

Consider `CN(N=O)C1=C(NC2CCCCC2)C(=O)c2ccccc2C1=O`, for which the pIC50 in the assay on Entamoeba histolytica and with Toxoplasma gondii was less than 4.52 each time.

Turning to `Cc1ccc(Cn2c(N3CCC(C(=O)NCc4cccs4)CC3)nc3ccccc32)cc1`, the pIC50 with Entamoeba histolytica and in the assay on Toxoplasma gondii was less than 4.52 in each case.

`COc1ccc2nc(N)nc(C)c2c1`: the pIC50 in the assay with Entamoeba histolytica and in the assay with Toxoplasma gondii was less than 4.52 in each case.

In the case of `FC(F)(F)c1cccc(CNC2CCN(CCc3ccccc3)CC2)c1`, the pIC50 in the assay on Entamoeba histolytica and in the assay with Toxoplasma gondii was less than 4.52 throughout.

On to `CCN(CC)CCNc1ccnc2cc(Cl)ccc12`, for which the negative logarithm of the IC50 (pIC50) in the assay with Entamoeba histolytica and with Toxoplasma gondii was less than 4.52 throughout.

Consider `Nc1nc(Nc2cccc(F)c2)nc2ccccc12`, for which the pIC50 is less than 4.52 with Entamoeba histolytica and 4.54 in the assay with Toxoplasma gondii.

Consider `CCn1c2c(c(=N)c3c1CCC3)CCCC2`, for which the pIC50 in the assay on Entamoeba histolytica and in the assay with Toxoplasma gondii was less than 4.52 in each case.

In the case of `CN1CCN(c2c3c(c(C#N)c4nc5ccccc5n24)CCC3)CC1`, the pIC50 with Entamoeba histolytica and with Toxoplasma gondii was less than 4.52 throughout.

`CCOc1ccc(Nc2ccnc3cc(Cl)ccc23)cc1`: the pIC50 in the assay on Entamoeba histolytica and in the assay on Toxoplasma gondii was less than 4.52 in each case.

Regarding `CCCCCCc1cc2cc(-c3nc4ccccc4[nH]3)c(=Nc3ccccc3C)oc2cc1O`, the pIC50 in the assay on Entamoeba histolytica is less than 4.52; in the assay with Toxoplasma gondii, 5.20.

As to `CCOC(=O)c1cnc2c(C)cccc2c1Nc1ccc(C(C)=O)cc1`, the pIC50 in the assay on Entamoeba histolytica and in the assay with Toxoplasma gondii was less than 4.52 each time.

`COc1ccc2c(c1)C1(Nc3ccccc3-c3nc4ccccc4n31)C(=O)N2` (configuration not stated): the pIC50 with Entamoeba histolytica and with Toxoplasma gondii was less than 4.52 throughout.

Turning to `O=C(NC1CCN(Cc2ccccc2)CC1)c1cc(-c2cccnc2)nc2ccc(Cl)cc12`, the pIC50 in the assay with Entamoeba histolytica and in the assay on Toxoplasma gondii was less than 4.52 in each case.

For `Cc1ccc(NC(=O)Nc2cccc(Cl)c2)cc1F`, the pIC50 in the assay on Entamoeba histolytica and with Toxoplasma gondii was less than 4.52 each time.

For `O=C(Nc1ccccc1O)c1ccc(Oc2cccc(C(=O)Nc3ccccc3O)c2)cc1`, the pIC50 with Entamoeba histolytica is less than 4.52; in the assay with Toxoplasma gondii, 4.88.

Take `COc1ccc(CCNC(=O)c2cc(S(=O)(=O)N3CC(C)CC(C)C3)ccc2Sc2ccc(F)cc2)cc1OC` (configuration not stated): the negative logarithm of the IC50 (pIC50) with Entamoeba histolytica and in the assay on Toxoplasma gondii was less than 4.52 throughout.

For `O=C(NC(c1ccccc1)c1ccc2cccnc2c1O)c1ccccc1` (configuration not stated), the pIC50 in the assay with Entamoeba histolytica and in the assay on Toxoplasma gondii was less than 4.52 each time.

As for `C=C(C)CCC(C)N1CCC(N2CCC(C(=O)NCCc3ccccc3)CC2)CC1` (configuration not stated), the pIC50 in the assay on Entamoeba histolytica was less than 4.52; in the assay on Toxoplasma gondii it was 4.57.

Turning to `COc1cc(SC)ccc1C(=O)N1CCCC(C)C1` (configuration not stated), the negative-log IC50 (pIC50) with Entamoeba histolytica and in the assay on Toxoplasma gondii was less than 4.52 in each case.

For `COc1cccc(-c2nn(C)c3sc(C(=O)NCCN4CCN(c5ccccc5F)CC4)cc23)c1`, the pIC50 in the assay with Entamoeba histolytica and with Toxoplasma gondii was less than 4.52 in each case.

As for `CCC(c1ccccc1)c1nn2c(-c3cccs3)nnc2s1` (configuration not stated), the pIC50 in the assay on Entamoeba histolytica and with Toxoplasma gondii was less than 4.52 in each case.

Take `CC(C)(C)C(=O)Nc1ccc(C(=O)Nc2cccc(-c3nc4ccccc4[nH]3)c2)cc1`: the negative-log IC50 (pIC50) in the assay on Entamoeba histolytica and in the assay on Toxoplasma gondii was less than 4.52 in each case.

With `COc1ccc(N2CCN(C(CNC(=O)C3CCCCC3)c3ccc4c(c3)OCO4)CC2)cc1` (configuration not stated), the results for the negative-log IC50 (pIC50) in the assay with Entamoeba histolytica and in the assay on Toxoplasma gondii were less than 4.52 and 4.57, respectively.

Regarding `CC(C)=CCN1CCC(C(=O)Nc2ccc(-c3nc4ccccc4[nH]3)cc2)CC1`, the negative-log IC50 (pIC50) in the assay on Entamoeba histolytica and in the assay with Toxoplasma gondii was less than 4.52 in each case.

With `COc1ccc2c(=O)cc(C(Cl)(Cl)Cl)oc2c1`, the negative-log IC50 (pIC50) in the assay on Entamoeba histolytica is less than 4.52; with Toxoplasma gondii it was 5.19.

In the case of `CN1c2ccccc2N(C)C1c1ccc2c(c1)OCO2`, the pIC50 in the assay with Entamoeba histolytica and in the assay with Toxoplasma gondii was less than 4.52 in each case.

On to `CC(=O)Nc1nnc(SCc2c(C)cc(C(C)(C)C)cc2C)s1`, for which the pIC50 in the assay on Entamoeba histolytica and in the assay with Toxoplasma gondii was less than 4.52 throughout.

Consider `CCN1CCCC1CNc1[nH]cnc2c3cc(Cl)ccc3nc1-2` (configuration not stated), for which the pIC50 in the assay on Entamoeba histolytica and in the assay with Toxoplasma gondii was less than 4.52 each time.

Consider `Cc1cc(C)c2nc(N3CCC(C(=O)NCCCN4CCC(N5CCCCC5)CC4)CC3)sc2c1`, for which the pIC50 with Entamoeba histolytica and in the assay on Toxoplasma gondii was less than 4.52 throughout.

Turning to `O=C(Nc1ccc(F)c(Cl)c1)Nc1ccc(Cl)c(Cl)c1`, the negative logarithm of the IC50 (pIC50) is less than 4.52 with Entamoeba histolytica and 4.58 in the assay on Toxoplasma gondii.

Take `O=C(Nc1ccc(-c2nc3cc4ccccc4cc3[nH]2)cc1)c1cccc(Br)c1`: the pIC50 with Entamoeba histolytica and in the assay with Toxoplasma gondii was less than 4.52 each time.

As to `Cc1ccccc1OCCSc1nc2ccc(NC(=O)c3ccccc3)cc2s1`, the pIC50 with Entamoeba histolytica and in the assay with Toxoplasma gondii was less than 4.52 each time.

Consider `CCOC(=O)C1=CN(C)C=C(C(=O)OCC)C1c1cc(Br)c(OCC)c(OC)c1`, for which the negative logarithm of the IC50 (pIC50) in the assay on Entamoeba histolytica and with Toxoplasma gondii was less than 4.52 each time.

Regarding `O=C(NNc1cc(N2CCCC2)nc(N2CCCC2)n1)c1ccccc1`, the pIC50 with Entamoeba histolytica and with Toxoplasma gondii was less than 4.52 in each case.

As to `CCOc1ccc(CN2CCN(CC(O)COc3ccc(OCC(O)CN4CCN(Cc5ccc(OCC)cc5)CC4)cc3)CC2)cc1` (configuration not stated), the pIC50 with Entamoeba histolytica and in the assay with Toxoplasma gondii was less than 4.52 in each case.

For the compound `COc1ccc(C(C)=O)cc1N1C(=O)C2C(C1=O)C1(c3ccccc3)C(=O)C2(c2ccccc2)C(c2ccc(C)cc2)=C1c1ccc(C)cc1` (configuration not stated), the pIC50 with Entamoeba histolytica and in the assay on Toxoplasma gondii was less than 4.52 in each case.

Consider `Cc1ccc(C2CC(C(F)(F)F)n3nc(C(=O)N4CCN(C(c5ccccc5)c5ccccc5)CC4)cc3N2)cc1` (configuration not stated), for which the pIC50 with Entamoeba histolytica and in the assay with Toxoplasma gondii was less than 4.52 in each case.

In the case of `CC(C)(C)c1ccc(C2CC3=Nc4ccccc4N(C(=O)c4ccccc4Cl)C(c4ccc(F)cc4)C3=C(O)C2)cc1` (configuration not stated), the pIC50 with Entamoeba histolytica and in the assay with Toxoplasma gondii was less than 4.52 throughout.

On to `CCOc1ccc(-n2cc(-c3ccccc3)c3c(SCc4cc(C)ccc4C)ncnc32)cc1`, for which the pIC50 with Entamoeba histolytica is less than 4.52; with Toxoplasma gondii, 4.95.

As to `CN(C)CCNc1cc(-c2ccccc2)nc2ccccc12`, the pIC50 is less than 4.52 in the assay with Entamoeba histolytica and 5.52 in the assay with Toxoplasma gondii.

Turning to `CCN(Cc1ccccc1)C1CCN(Cc2cc(Br)ccc2O)CC1`, the negative logarithm of the IC50 (pIC50) in the assay on Entamoeba histolytica and with Toxoplasma gondii was less than 4.52 each time.

Turning to `CCOC(=O)C1=C(C)N=c2sc(=Cc3cc(Cl)ccc3O)c(=O)n2C1c1ccc(OC)cc1` (configuration not stated), the pIC50 with Entamoeba histolytica was less than 4.52; in the assay with Toxoplasma gondii, 4.60.

With `Cc1ccc(C)c(Cn2c(N3CCC(C(=O)NCc4cccs4)CC3)nc3ccccc32)c1`, the pIC50 with Entamoeba histolytica and in the assay on Toxoplasma gondii was less than 4.52 in each case.

On to `CC(C)(C)c1ccc(O)c(CNC2CCCCC2)c1`, for which the pIC50 with Entamoeba histolytica and with Toxoplasma gondii was less than 4.52 in each case.

Regarding `CC(C)(C)c1ccc(C(=O)Nc2c3c(nn2-c2cccc(Cl)c2)CSC3)cc1`, the pIC50 in the assay with Entamoeba histolytica and in the assay on Toxoplasma gondii was less than 4.52 throughout.

As to `Cc1cc(=O)oc2c1ccc1oc(C(=O)c3ccccc3)c(C)c12`, the pIC50 in the assay on Entamoeba histolytica and in the assay on Toxoplasma gondii was less than 4.52 in each case.

With `CCCCN(CCCC)S(=O)(=O)c1ccc(NC(=O)c2ccco2)cc1`, the pIC50 is less than 4.52 with Entamoeba histolytica and 5.97 with Toxoplasma gondii.

Regarding `CCCCCCn1c(=N)n(CC(O)COc2cccc(C)c2)c2ccccc21` (configuration not stated), the pIC50 in the assay with Entamoeba histolytica and with Toxoplasma gondii was less than 4.52 each time.

For the compound `CCOC(=O)c1cnc2c(C)cc(C)cc2c1Nc1ccc(OC)c(OC)c1`, the pIC50 in the assay on Entamoeba histolytica and with Toxoplasma gondii was less than 4.52 throughout.

Consider `O=C(NC1CCN(Cc2ccccc2)CC1)c1cc2nc(-c3ccc(Cl)s3)cc(C(F)(F)F)n2n1`, for which the pIC50 in the assay with Entamoeba histolytica and in the assay with Toxoplasma gondii was less than 4.52 in each case.

For the compound `CN(C)c1ccc(C(O)(c2ccc(N(C)C)cc2)c2ccc(N(C)C)cc2)cc1` [METHYLROSANILINE], the pIC50 in the assay on Entamoeba histolytica and in the assay with Toxoplasma gondii was less than 4.52 each time.

Regarding `Cc1sc(NC(=O)c2ccco2)c(C(c2cccnc2)N2CCC(Cc3ccccc3)CC2)c1C` (configuration not stated), the pIC50 with Entamoeba histolytica and in the assay on Toxoplasma gondii was less than 4.52 each time.

Turning to `Cc1cc(Nc2ccc(Cl)cc2)n2nc(C(F)(F)F)nc2n1`, the pIC50 in the assay on Entamoeba histolytica and in the assay with Toxoplasma gondii was less than 4.52 each time.

As for `Cc1cc(N2CCCC2)nc(Nc2ccc(NC(=O)CCc3ccccc3)cc2)n1`, the pIC50 in the assay on Entamoeba histolytica and in the assay with Toxoplasma gondii was less than 4.52 in each case.

On to `Cn1c(=O)n(C)c2cc(CNCCNc3ccnc4cc(Cl)ccc34)ccc21`, for which the negative logarithm of the IC50 (pIC50) in the assay with Entamoeba histolytica and in the assay with Toxoplasma gondii was less than 4.52 each time.

In the case of `Cn1c(C(=O)c2cccc3ccccc23)nc2ccccc21`, the pIC50 with Entamoeba histolytica and in the assay on Toxoplasma gondii was less than 4.52 each time.

On to `Cc1ccc(C(=O)c2oc3ccc4c(C)cc(=O)oc4c3c2C)cc1`, for which the negative-log IC50 (pIC50) in the assay on Entamoeba histolytica and with Toxoplasma gondii was less than 4.52 in each case.

For `CCOC(=O)C1=C(C)N=c2sc(=Cc3ccccc3O)c(=O)n2C1c1ccc(OC)c2ccccc12` (configuration not stated), the pIC50 with Entamoeba histolytica and in the assay with Toxoplasma gondii was less than 4.52 throughout.

Turning to `O=C(Nc1ccc(N2CCN(Cc3ccccc3)CC2)cc1)c1cccs1`, the pIC50 in the assay on Entamoeba histolytica and in the assay on Toxoplasma gondii was less than 4.52 in each case.

Consider `COc1ccc(-c2nc3cc(Cc4ccc5[nH]c(-c6ccc(OC)cc6)nc5c4)ccc3[nH]2)cc1`, for which the pIC50 in the assay on Entamoeba histolytica and in the assay on Toxoplasma gondii was less than 4.52 each time.

For the compound `Cc1ccnc(NC(c2cccc(OCc3ccccc3)c2)c2ccc3cccnc3c2O)c1` (configuration not stated), the pIC50 with Entamoeba histolytica and in the assay with Toxoplasma gondii was less than 4.52 in each case.

On to `COc1cc2c(cc1OC)C1=NNC(=O)C1=NC(C)(C)C2`, for which the pIC50 in the assay with Entamoeba histolytica and in the assay with Toxoplasma gondii was less than 4.52 in each case.
